We go through 90 compounds from a melting point compilation (Tetko et al.; mined from patent text by program, amines drawn as free bases though some values may be those of a salt).

For orientation: melting point means the temperature, or range, at which the solid turns liquid. The compound `O=C(O)CC(CSc1nc2ccccc2s1)C(=O)O` (stereo not given) came in with a melting point of 136 to 139 °C. On to `Cc1cc(NC(=O)C(C)(O)COc2ccc(CCCl)c(F)c2)ccc1[N+](=O)[O-]` (stereo not given), for which the melting point is 77 to 79 °C. In turn, `COC(=O)c1ccc(-c2ccc(OC)c(OC)c2)cc1OC` yielded a melting point of 96 to 97.5 °C. For the compound `CCCN1C(=O)c2ccccc2C1(SCc1ccccc1)c1ccc(Cl)cc1` (stereo not given), the melting point is 132 to 133 °C. The compound `COc1ccc(-c2cnc(N3CCC(O)CC3)nc2)cc1` registered a melting point of 158 to 160 °C. To `CC(=O)OCC(=O)Nc1cccc(N2CCOCC2)c1C#N` belongs 131 to 132 °C; to `CC(C)(C)C1CCCC=C1c1ccc(C(=O)O)cc1` (stereo not given), 197 °C. Then `O=C1CCCC(=O)C1c1ccccc1Cl`, with 148 to 149 °C. `COC(=O)c1ccc(/C=C/c2nc(-c3ccc4ccccc4c3)oc2C)cc1` had a melting point of 216 to 217 °C. `CCOC(=O)C(O)=Cc1ccc(Oc2ccccc2)nn1` displayed a melting point of 127 to 128 °C. To `CSCCSC1=C(O)CC(C)(C)CC1=O` belongs 57 to 59 °C; to `CC(C)c1cccc(C(C)C)c1NC(=O)NCC1(c2ccc3ccccc3c2)CCC1`, 146 to 150 °C. Consider `OCCCc1nc(-c2ccc(Cl)cc2)co1`, for which the melting point fell in the range of 41 to 42 °C.

For `Cc1cccc(C(=O)Nc2nc(=O)n(C3OC(C)C(O)C3O)cc2F)c1` (stereo not given), the melting point is 146 to 148 °C. With `CN1C(C(=O)Nc2ccccn2)=C(OCOC(=O)c2ccccc2)c2ccccc2S1(=O)=O`, the melting point lay in the range of 149 to 150 °C. `O=C(OC1c2ccccc2C(=O)N1c1ccc2ccc(Cl)nc2n1)N1CCN(C=S)CC1` (stereo not given) yielded a melting point of 295 °C. The compound `COc1ccc2c(c1)CCN=C2C` registered a melting point of 206 to 207 °C.

With `COc1c(C=O)c(C)cc2c1C(C)(C)CCC2(C)C`, the melting point is 78 °C. To `CN1CCCCC1C(NC(=O)Nc1ccc2[nH]ncc2c1)c1cc(F)cc(Cl)c1` (stereo not given) belongs 192 °C; to `C#CCOc1nc(C(F)(F)F)cc(=O)n1-c1cc(C(=O)OC(C)C)c(Cl)cc1F`, 117 to 119 °C. The compound `COC(=O)c1cc(N2CCNC2=O)c2cc(Cc3ccc(F)cc3)cnc2c1O` showed a melting point of 248 to 250 °C. `COc1ccc(Cn2ccn(CC(=O)c3ccc(OC)c(OC4CCCC4)c3)c2=O)cc1` displayed a melting point of 106 °C.

Take `CC1=C(c2cc(C)no2)C(=O)CCC1`: the melting point was in the range of 104 to 105 °C. Then `O=c1oc2c(c(O)c1C(c1ccccc1)C1CC1)CCCCCC2CC1CCOC1` (stereo not given), with 80 to 84 °C; and `O=C(Nc1ccc(Cl)cn1)c1cc(Cl)ccc1NCC1CCN(C(=O)N2CCOCC2)CC1`, with 105 to 107 °C; and `CC(C(=O)O)c1ccc(N2CC3=C(CC=CC3)C2=O)cc1` (stereo not given), with 220 to 222 °C. For the compound `CC(=O)Nc1ccc(-c2cc(C(=O)c3ccc(C)cc3)sc2N2CCOCC2)cc1`, the melting point worked out at 168 °C. Turning to `C=C1c2cc(C(=O)O)ccc2CCC1n1ccnc1` (stereo not given), the melting point was 227 to 229 °C. The compound `N#CCc1ccc(C(=O)C2CC2)cc1` showed a melting point of 86 to 87 °C. Consider `CCc1ccc(C(=O)COc2ccc(CC3SC(=O)NC3=O)cc2)nc1` (stereo not given), for which the melting point was in the range of 148 to 149 °C.

In the case of `COc1ccc(N2CCN(c3c(C)c4c(c(C)c3Br)OC(C)(C)C4)CC2)cc1`, the melting point was 180 to 181 °C. In the case of `COc1ccc2c3c(oc2c1)CC(C(=O)O)CC3` (stereo not given), the melting point is 175 to 180 °C. `COc1ccc(Nc2ccc(Nc3ncnc4cc(-c5ccccc5)sc34)cc2)cc1` yielded a melting point of 210 to 211 °C.

For `O=C(c1ccc([N+](=O)[O-])o1)N1CCN(CC(O)COc2cccc3[nH]c4ccccc4c23)CC1` (stereo not given), the melting point lay within 178 to 181 °C. Then `Cc1csc(C2=CCN(CCCC(=O)c3ccc(F)cc3)CC2)n1`, with 81 to 82 °C; and `O=C1CCCN1CCCn1cnc2cnc3cc(-c4ccccc4)ccc3c21`, with 138 to 141 °C; and `COc1cc2c(c(C(C)C)c1OC)CC(C)C=C2` (stereo not given), with 56 to 57 °C. `CCc1cc2[nH]c(=O)c(=O)[nH]c2c([N+](=O)[O-])c1Cl`: the melting point is greater than 330 °C. In turn, `CCOC(=O)c1sc(C(=O)OCC)c2c1OC=CCO2` gave a melting point of 198 to 200 °C. `Nc1nc2ccc(Cc3cccs3)cc2s1` had a melting point of 188 to 191 °C. `O=C1c2ccccc2C(=O)N1Cc1cc2cc(Cl)cc(-c3ccccc3)c2o1`: the melting point was in the range of 163 to 166 °C. Turning to `COc1ccc2c(C(=O)c3ccc(OC4CCCC4N4CCCCC4)cc3)c(-c3ccc(OCCN4CCCC4)cc3)sc2c1` (stereo not given), the melting point is 68 to 72 °C. In turn, `CC(Oc1cc(Oc2ccc(C(F)(F)F)cc2Cl)ccc1[N+](=O)[O-])C(=O)OCn1cccn1` (stereo not given) came in with a melting point of 75 °C.

Compound `O=C(O)C(=O)c1ccc(OCCOC23CC4CC(CC(C4)C2)C3)cc1` came in with a melting point of 107 to 109 °C. To `CN(C)Cc1cnc(NC(=O)[C@H](CC2CCCC2)c2ccc(S(C)(=O)=O)c(Cl)c2)cn1` belongs 88 to 91.5 °C; to `CC(C)C(NS(=O)(=O)c1ccc(Cl)s1)c1cccn1Cc1ccccc1` (stereo not given), 102 to 103 °C. In the case of `CCOC(=O)Nc1coc2cc(OCc3ccccc3)ccc12`, the melting point came to 140 °C. Take `CCOc1ccc2c(c1)n(C1CCCCC1)c(=O)n2S(=O)(=O)c1ccc(NC(=O)NC(C)(C)C)cc1OC`: the melting point worked out at 237 °C. To `CCCCC(O)(Cn1ccnc1)c1ccc(Cl)cc1Cl` (stereo not given) belongs 78 to 80 °C; to `N#Cc1cnc(-c2ccncc2)nc1N`, 253 to 255 °C; to `CC(=NNc1ccc(C2=NNC(=O)CC2)cc1)c1cscn1`, greater than 300 °C.

In the case of `CNC(=S)NCCOCc1c[nH]cn1`, the melting point is 96 to 98 °C. Consider `COc1cc2c3c([nH]c2cc1O)-c1ccccc1C3=O`, for which the melting point was greater than 260 °C. For the compound `CCCc1nc(C(=O)O)c(C(=O)O)[nH]1`, the melting point lay within 261 to 263 °C. `NC1=CC2=C(CC1)CCc1c2[nH]c(=O)c(=O)n1Cc1ccccc1` showed a melting point of 290 °C. To `OCCNc1c(Br)cnc2cc(Cl)ccc12` belongs 169 to 170 °C; to `CCCCNc1nc(N(CCCC)C2CC(C)(C)N(OC3CCCCC3)C(C)(C)C2)nc(N(CCCC)C2CC(C)(C)N(OC3CCCCC3)C(C)(C)C2)n1`, 80 to 86 °C; to `CC(=CC(=O)NCCCCCC(=O)NO)c1ccccc1`, 131 to 133 °C. Compound `C=CCc1c(OC(C)=O)c(C)cc2ccc(=O)oc12` displayed a melting point of 110 to 111 °C. Compound `COc1cc(OC)nc(Oc2cccc(Oc3nc(OC)cc(OC)n3)c2C=O)n1` registered a melting point of 129 °C. Compound `Cc1c(C(=O)O)cc(Cl)c2c1C(=O)CCS2` registered a melting point of 190 to 192 °C. `C=Cc1ccc(COc2ccc(CSCCC(=O)O)cc2)cc1` yielded a melting point of 135 to 136 °C. With `Fc1ccc(-n2nc(-c3nc(-c4ccccc4)cs3)c3c2C2CCC3C2)c(F)c1` (stereo not given), the melting point lay within 128 to 130 °C.

The compound `CN1C(=O)CC[C@]2(C)c3ccc(Sc4nc5c(Cl)cccc5s4)cc3CC[C@@H]12` showed a melting point of 207 to 209 °C. Compound `CCn1c(=O)[nH]c2ncn(CC)c2c1=O` registered a melting point of 204 to 205 °C. As to `CCCc1c(OCCC2Cc3cc(C(=O)CCC(=O)O)ccc3O2)ccc(C(C)=O)c1O` (stereo not given), the melting point was in the range of 156 to 158 °C. As for `CCCCC(=O)Nc1cccc2c1C1(COc3cc4c(cc31)OCCO4)C(=O)N2C` (stereo not given), the melting point is 182 to 183 °C. To `Clc1ccc2c(c1)CCN(c1ccccc1)C2` belongs 67 to 70 °C; to `Cc1cc(-c2cccnc2)cc2ccc(=O)[nH]c12`, 236 °C; to `CCOC(=O)C(C)(C)Oc1ccc(-c2ccc(CCNC(=O)c3ccccc3C)cc2)cc1`, less than 20 °C. For the compound `NC(=O)C1=NN(c2cccc(COCC(F)(F)C(F)(F)F)c2)C(c2ccccc2F)N1` (stereo not given), the melting point lay in the range of 151 to 153 °C.

`O=C1c2cccc(NC(=S)Nc3cc[nH]n3)c2C2CCCCN12` (stereo not given) had a melting point of 208 °C. Take `O=C(O)C(=O)c1c(F)c(F)c(OCCOc2ccc3ccccc3c2)c(F)c1F`: the melting point is 146 to 148 °C. As to `CSC1=NC(C)(C)CCC(C)(C)N1`, the melting point fell in the range of 200 to 205 °C.

Compound `CC(C)(C)OC(=O)N1CCC(Cc2c[nH]c3ccc(F)cc23)CC1` displayed a melting point of 144 to 145 °C. Consider `CC(C(=O)O)c1cccc2c1Oc1ccccc1CC2=O` (stereo not given), for which the melting point was in the range of 159 to 160 °C. Consider `CC(C)(C)OC(=O)c1ccc(C(=O)N(Cc2ccccc2)S(=O)(=O)c2ccc(Br)cc2)cc1`, for which the melting point was in the range of 120 to 122 °C. The compound `Cc1ccc(OCCCN2CCC(Cc3ccc4ccccc4n3)CC2)c2c1NC(=O)C2(C)C` gave a melting point of 150 to 151 °C. In the case of `CC(C)(C)c1cc2c(c(C(C)(C)C)c1)OP(OC1CC(C)(C)N(OC3CCCCC3)C(C)(C)C1)Oc1c(cc(C(C)(C)C)cc1C(C)(C)C)C2`, the melting point lay within 140 to 144 °C. Turning to `O=[N+]([O-])c1oc2c(CC(CO)CO)cccc2c1-c1ccccc1`, the melting point is 166 to 168 °C. The compound `COC(=O)[C@H](CC(C)C)NC(=O)[C@H](NC(=O)OCc1ccccc1)C(C)C` came in with a melting point of 112 to 114 °C.

Turning to `CC12C=CC(C)(O1)C(Br)C(=O)C2Br` (stereo not given), the melting point is 115 to 120 °C.

In turn, `C=CC(c1ccccc1)c1c(C)c(OC(C)=O)c(C)c(C)c1O` (stereo not given) had a melting point of 136 to 138 °C.

In turn, `CC(C)CC(S)C(=O)NC1(C(=O)NC(CC2(c3cccc4ccccc34)C=CC(c3ccccc3)=CC2)C(=O)O)CCCC1` (stereo not given) displayed a melting point of 187 to 189 °C. The compound `Cc1csc(N2C(=O)C(Cc3ccccc3)NC2=S)n1` (stereo not given) had a melting point of 169 to 171 °C.

`S=c1cc(-c2ccccc2)c(S)n[nH]1`: the melting point was 146 to 148 °C. Turning to `Nc1cccc2c1C(Cc1ccnc(F)c1)(Cc1ccnc(F)c1)c1ccccc1-2`, the melting point lay within 182 to 184 °C.

For `CCC1(C)CCCC(C)(C)N1OC(C)(C)C#N` (stereo not given), the melting point lay in the range of 41 to 52 °C. For the compound `COC(=O)c1cccc(-c2cccc(Oc3cccc(Cl)c3Cl)n2)c1`, the melting point was in the range of 105 to 106 °C. Regarding `CCn1cccc1Cc1cccc(NC(N)=O)c1`, the melting point was in the range of 56 to 58 °C.
